Assay results published in US20140357512A1, “HISTONE DEACETYLASE (HDAC) BIOMARKERS IN MULTIPLE MYELOMA” (priority 2013, published 2014).

System: human myeloma cell line MM.1S
Test: SILAC acetylated-lysine peptide profiling, HDAC inhibitor vs DMSO (light/heavy ratio)
Assay type: cell-based
Description: An embodiment of the invention comprises utilizing the SILAC method in order to quantitate changes in protein expression between two or more populations of cells. The SILAC method is a technique based on mass spectrometry that detects differences in protein abundance among samples using non-radioactive isotopic labeling. The SILAC method is known in the art, and described in detail in Ong et al., “Stable Isotope Labeling by Amino Acids in Cell Culture, SILAC, as a Simple and Accurate Approach to Expression Proteomics”, Molecular & Cellular Proteomics, vol. 1, pp. 376-386 (2002), which is incorporated herein by reference in its entirety.
Briefly, the SILAC method involves growing two populations of cells in cell culture. The first population of cells is grown in growth media containing normal amino acids (“normal media”). The second population of cells is grown in media lacking a standard essential amino acid (such as lysine), but is then supplemented with a non-radioactive, isotopically labeled form of that essential amino acid (such as lysine labeled with ^13C atoms, rather than normal ^12C atoms), which is called “heavy media”. When the two populations of cells are each growing in the medium, they incorporate the amino acids into all of their proteins. The growth of cells maintained in the heavy media is no different from that in normal media. All peptides containing the heavy amino acids are heavier than their normal counterparts. The cells from each of the two populations of cells are lysed. The lysates from each of the two cell populations are then combined. The combined cell lysates are then analyzed by mass spectrometry. Pairs of chemically identical peptides of different stable isotope composition can be differentiated in a mass spectrometer due to their difference in mass. The ratio of peak intensities in the mass spectrum for such peptide pairs reflects the abundance ratio for the two proteins.
This example describes SILAC studies that were performed to compare the effects of three different HDAC inhibitors (Compound A, Compound B, and tubastatin A) to a control on a human multiple myeloma cell line. The HDAC inhibitors were also compared amongst themselves to determine differences in their effects.
A human myeloma cell line MM.1S was grown using either ^12C (light) or ^13C (heavy) lysine containing culture medium. The “heavy” cells were treated with DMSO as the control, and the “light” cells were treated with a single HDAC inhibitor at 37° C. for 6 hours. The heavy and light cells were lysed, and the lysates were mixed in 1:1 ratio and digested with the protease trypsin. The acetylated lysine containing peptides (due to the action of the HDAC inhibitor) in the digested peptide pool were captured by a non-specific anti-acetylated lysine antibody cocktail (the antibodies identify both light and heavy acetylated peptides), and subjected to mass spectrometry analysis in order to identify thousands of individual peptides.
Thousands of peptides were identified in pairs (^12C and ^13C) due to their known mass differences. The amino acid sequence and quantitative ratio (Light/Heavy) of a given peptide in two differentially treated cell lysates were then determined and annotated with their possible protein (gene) sources.
As stated above, three HDAC inhibitors (Compound A, Compound B, and Tubastatin A) were used. Thus, the SILAC method was performed three times, with a different HDAC inhibitor compared to a control each time. Accordingly, there are three pairs of quantitative data in the table below, i.e., Compound A:DMSO, Compound B:DMSO, and Tubastatin A:DMSO. A cut-off of 1.30 fold of change (increase or decrease) was then used to determine “changed” or “+” in the table, and any peptides with a fold of change less than 1.3 fold were determined to be “unchanged” or “0” in the table. Those peptides that were not identified were marked as “NA” in the table. […]

CN1CCc2c(c3ccccc3n2Cc2ccc(C(=O)NO)cc2)C1 [Tub A]
light to heavy ratio (L/H ratio) of acetylated peptide SNPSEVVEFTTCPDK(ac)PGIPVKPSVK (SEQ ID NO: 336) (Isoform 2 of Fibronectin type-III domain-containing protein 3A [507], FNDC3A, drug:DMSO): 0.00 log 2 | light to heavy ratio (L/H ratio) of acetylated peptide LIAGNK(ac)PVSFLTAQQLQQLQQQGQATQVR (SEQ ID NO: 512) (Isoform 2 of Nuclear factor related to kappa-B-binding protein [1262], gene NFRKB, inhibitor:DMSO): 0.00 log 2 | light to heavy ratio (L/H ratio) of acetylated peptide YQQFK(ac)DFQR (SEQ ID NO: 258) (Isoform 2 of Spliceosome RNA helicase DDX39B [349], SNORD84, DDX39B, drug:DMSO): −0.38 log 2 | light to heavy ratio (L/H ratio), log 2 scale, acetylated peptide LEPLK(ac)PLK (SEQ ID NO: 772) (Isoform 3 of Proline-rich protein 12 [1223], gene PRR12, drug:DMSO): 0.00 | light to heavy ratio (L/H ratio), log 2 scale, acetylated peptide DQTK(ac)SIVEK (SEQ ID NO: 810) (Isoform 3 of Reticulon-3 [217], gene RTN3, drug:DMSO): 0.00 | light to heavy ratio (L/H ratio) of acetylated peptide VQDGLSDIAEK(ac)FLK (SEQ ID NO: 326) (Isoform 5 of Transcriptional regulator ATRX [812], ATRX, drug:DMSO): 0.00 log 2 | light to heavy ratio (L/H ratio) of acetylated peptide K(ac)SSETLR (SEQ ID NO: 601) (Isoform CNPI of 23-cyclic-nucleotide 3-phosphodiesterase [177], gene CNP, inhibitor:DMSO): 0.00 log 2 | light to heavy ratio (L/H ratio) of acetylated peptide MVAAAK(ac)YAR (SEQ ID NO: 324) (Isoform Heart of ATP synthase subunit gamma mitochondrial [55], ATP5C1, drug:DMSO): 0.00 log 2 | light to heavy ratio (L/H ratio) of acetylated peptide VPNDK(ac)YYGAQTVR (SEQ ID NO: 625) (Isoform Mitochondrial of Fumarate hydratase mitochondrial [66], gene FH, inhibitor:DMSO): 0.00 log 2 | light to heavy ratio (L/H ratio) of acetylated peptide APQCLGK(ac)FIEIAAR (SEQ ID NO: 338) (Isoform Short of Heterogeneous nuclear ribonucleoprotein U [546], HNRNPU, drug:DMSO): 0.00 log 2 | light to heavy ratio (L/H ratio) of acetylated peptide LLEQYK(ac)EESK (SEQ ID NO: 302) (Isoform Short of Heterogeneous nuclear ribonucleoprotein U [651], HNRNPU, drug:DMSO): −0.57 log 2 | light to heavy ratio (L/H ratio) of acetylated peptide, log 2 scale (K(ac)HPDASVNFSEFSK (SEQ ID NO: 164), Similar to nonhistone chromosomal protein HMG-1 [30], HMGB1P4): −0.39 | light to heavy ratio (L/H ratio) of acetylated peptide, log 2 scale (K(ac)TFEINPR (SEQ ID NO: 171), Endoplasmin [683], HSP90B1): −0.73 | light to heavy ratio (L/H ratio) of acetylated peptide, log 2 scale (K(ac)YEDICPSTHNMDVPNIK (SEQ ID NO: 152), Eukaryotic translation initiation factor 5A-2 [68], EIF5A2): −0.56 | light to heavy ratio (L/H ratio) of acetylated peptide, log 2 scale (KLPK(ac)NEPQNATGAPGR (SEQ ID NO: 198), Ras-related protein Rab-5C [184], RAB5C): 0.38 | light to heavy ratio (L/H ratio), log 2 scale, acetylated peptide (ac)ASPSLERPEK(ac)GAGK (SEQ ID NO: 801) (KRR1 small subunit processome component homolog [11], gene KRR1, drug:DMSO): 0.00 | light to heavy ratio (L/H ratio) of acetylated peptide IVADK(ac)DYSVTANSK (SEQ ID NO: 317) (L-lactate dehydrogenase B chain [82], LDHB, drug:DMSO): 0.51 log 2 | L/H ratio of acetylated peptide (LAK(ac)LSDGVAVLK (SEQ ID NO: 484), 60 kDa heat shock protein mitochondrial [396], HSPD1): 0.00 log 2 | light to heavy ratio (L/H ratio) of acetylated peptide, log 2 scale (LENK(ac)MEGIGLK (SEQ ID NO: 131), PRA1 family protein 3 [151], ARL6IP5): 0.67 | light to heavy ratio (L/H ratio) of acetylated peptide, log 2 scale (LIK(ac)VHLDK (SEQ ID NO: 215), 40S ribosomal protein S7 [155], RPS7): −0.50 | light to heavy ratio (L/H ratio) of acetylated peptide, log 2 scale (LIYDTK(ac)GR (SEQ ID NO: 213), 40S ribosomal protein S4 X isoform [106], RPS4X): −0.40 | L/H ratio of acetylated peptide IHLEIK(ac)QLNR (SEQ ID NO: 57) (LMAN1 [346], log 2 scale, drug vs DMSO): −0.56 | L/H ratio of acetylated peptide LYK(ac)EELEQTYHAK (SEQ ID NO: 4) (LMNB1 [261], log 2 scale, drug vs DMSO): 0.46 | L/H ratio of acetylated peptide LYKEELEQTYHAK(ac)LENAR (SEQ ID NO: 58) (LMNB1 [271], log 2 scale, drug vs DMSO): −0.73 | light to heavy ratio (L/H ratio) of acetylated peptide, log 2 scale (LNEQK(ac)LAQLEEAK (SEQ ID NO: 133), ATP synthase subunit b mitochondrial [131], ATP5F1): 0.72 | L/H ratio of acetylated peptide GFGYK(ac)GSCFHR (SEQ ID NO: 59) (LOC390956 [71], log 2 scale, drug vs DMSO): −0.45 | light to heavy ratio (L/H ratio) of acetylated peptide, log 2 scale (LSLDK(ac)VFR (SEQ ID NO: 226), Stomatin-like protein 2 [145], STOML2): −0.41 | light to heavy ratio (L/H ratio) of acetylated peptide, log 2 scale (LTALDYHNPAGFNCK(ac)DETEFR (SEQ ID NO: 137), UPF0568 protein C14orf166 [20], C14orf166): 0.41 | light to heavy ratio (L/H ratio) of acetylated peptide, log 2 scale (LTEAKPVDK(ac)VK (SEQ ID NO: 221), cDNA FLJ60124 highly similar to Mitochondrial dicarboxylate carrier [142], SLC25A10): −0.50 | L/H ratio of acetylated peptide (LTLSALLDGK(ac)NVNAGGHK (SEQ ID NO: 466), Voltage-dependent anion-selective channel protein 1 [266], VDAC1): 0.00 log 2 | L/H ratio of acetylated peptide (LVSEK(ac)LASYQAAR (SEQ ID NO: 476), Isoform 2 of Myc proto-oncogene protein [163], MYC): 0.00 log 2 | light to heavy ratio (L/H ratio) of acetylated peptide AVLK(ac)FAAATGATPIAGR (SEQ ID NO: 262) (Laminin receptor-like protein LAMRL5 [89], SNORA6, RPSAP15, SNORA62, RPSA, drug:DMSO): −0.53 log 2 | light to heavy ratio (L/H ratio) of acetylated peptide SYVSEK(ac)DVTSAK (SEQ ID NO: 628) (Leucine-rich PPR motif-containing protein mitochondrial [1332], gene LRPPRC, inhibitor:DMSO): 0.00 log 2 | L/H ratio of acetylated peptide ICCQFDFK(ac)R (SEQ ID NO: 60) (MAN2A1 [373], log 2 scale, drug vs DMSO): −0.69 | L/H ratio of acetylated peptide YLTNQK(ac)NSNSK(ac)NDR (SEQ ID NO: 17) (MEAF6 [69:74], log 2 scale, drug vs DMSO): 0.58 | light to heavy ratio (L/H ratio) of acetylated peptide, log 2 scale (MKENQK(ac)HIYYITGETK (SEQ ID NO: 169), Isoform 2 of Heat shock protein HSP 90-alpha [611], HSP90AA1): −0.46 | L/H ratio of acetylated peptide TLVLSDK(ac)HSPQK(ac)K (SEQ ID NO: 5) (MLL3 [2809:2814], log 2 scale, drug vs DMSO): 0.67 | light to heavy ratio (L/H ratio) of acetylated peptide, log 2 scale (MPTPVIK(ac)AFGILK (SEQ ID NO: 154), Isoform Mitochondrial of Fumarate hydratase mitochondrial [94], FH): −0.55 | L/H ratio of acetylated peptide LNK(ac)DQWEER (SEQ ID NO: 10) (MSN [165], log 2 scale, drug vs DMSO): −0.38 | light to heavy ratio (L/H ratio) of acetylated peptide LSLLSK(ac)FR (SEQ ID NO: 564) (Mitochondrial trifunctional protein beta subunit (Fragment) [100], gene HADHB, inhibitor:DMSO): 0.00 log 2 | light to heavy ratio (L/H ratio) of acetylated peptide EIFQNEK(ac)R (SEQ ID NO: 288) (NAD(P) transhydrogenase mitochondrial [70], NNT, drug:DMSO): 0.55 log 2 | light to heavy ratio (L/H ratio) of acetylated peptide AISPDK(ac)DNFYFDVK (SEQ ID NO: 284) (NAD(P) transhydrogenase mitochondrial [403], NNT, drug:DMSO): 0.40 log 2 | light to heavy ratio (L/H ratio) of acetylated peptide, log 2 scale (NATVGQSVLNIK(ac)YK (SEQ ID NO: 194), Peroxisome biogenesis factor 2 [84], PEX2): 0.51 | light to heavy ratio (L/H ratio) of acetylated peptide, log 2 scale (NCMTDLLAK(ac)LEAK (SEQ ID NO: 201), Receptor expression-enhancing protein 5 [25], REEP5): 0.49
